This is an account of results in patent publication US20030004172A1, “Fused pyrimidinone matrix metalloproteinase inhibitors” (priority 2001, published 2003).

The assay concerns the target MMP-13CD (catalytic domain of collagenase-3) (Homo sapiens, UniProt P45452). The assay is described as follows: Thiopeptolide substrate hydrolysis inhibition assay, MMP-13CD. Type of assay: biochemical. Conditions: Table I; thiopeptolide substrate, HEPES pH 7.0, 22° C.; read-out: MMP-13CD IC50. The text has this:
Thiopeptolide substrates show virtually no decomposition or hydrolysis at or below neutral pH in the absence of a matrix metalloproteinase enzyme.

Each structure is given as a SMILES string. Where only a bound is given, the exact number is not on record here.

A word on the IC50: it is the midpoint of a concentration-inhibition curve. On to `COc1cccc(CNC(=O)c2cc3c(=O)n(CC=C(C)C)c(=O)n(C)c3s2)c1` [Example 292], for which the half-maximal inhibitory concentration (IC50) was found to be 10000 nM.
With `COc1cccc(CNC(=O)c2cc3c(=O)n(CCS(=O)(=O)c4ccc(C)cc4)c(=O)n(C)c3s2)c1` [Example 293], the half-maximal inhibitory concentration (IC50) is greater than 100000 nM.
Consider `COc1cccc(CNC(=O)c2cc3c(=O)n(CCNC(=O)c4ccccc4)c(=O)n(C)c3s2)c1` [Example 294], for which the half-inhibitory concentration (IC50) is greater than 100000 nM.
In the case of `COc1cccc(CNC(=O)c2cc3c(=O)n(CCOc4ccc(Br)cc4)c(=O)n(C)c3s2)c1` [Example 295], the 50% inhibitory concentration (IC50) worked out at 230 nM.
As to `COc1cccc(CNC(=O)c2cc3c(=O)n(Cc4ccc5nonc5c4)c(=O)n(C)c3s2)c1` [Example 296], the IC50 came to 50.5 nM.
Next, `COc1cccc(CNC(=O)c2cc3c(=O)n(CCOc4ccccc4)c(=O)n(C)c3s2)c1` [Example 297]: 57 nM; `COC(=O)Nc1cc(Cn2c(=O)c3cc(C(=O)NCc4cccc(OC)c4)sc3n(C)c2=O)on1` [Example 298]: 490 nM.
For `COc1cccc(CNC(=O)c2cc3c(=O)n(CC(=O)C(CC(=O)OC(C)(C)C)NC(=O)OCc4ccccc4)c(=O)n(C)c3s2)c1` (centres unmarked) [Example 299] the value was 30000 nM; for `COC(=O)c1cc2c(=O)n(Cc3ccccc3)c(=O)n(C)c2s1` [Example 300, 3-Benzyl-1-methyl-2,4-dioxo-1,2,3,4-tetrahydro-thieno[2,3-d]pyrimidine-6-carboxylic acid methyl ester], greater than 100000 nM; for `Cc1c(C(=O)OCc2ccccc2)sc2[nH]c(=O)n(Cc3ccc(Br)cc3)c(=O)c12` [Example 301, 3-(4-Bromo-benzyl)-5-methyl-2,4-dioxo-1,2,3,4-tetrahydro-thieno[2,3-d]pyrimidine-6-carboxylic acid benzyl ester], greater than 100000 nM.
Next, `Cc1c(C(=O)OCc2ccccc2)sc2[nH]c(=O)n(Cc3ccc(F)cc3)c(=O)c12` [Example 302, 3-(4-Fluoro-benzyl)-5-methyl-2,4-dioxo-1,2,3,4-tetrahydro-thieno[2,3-d]pyrimidine-6-carboxylic acid benzyl ester]: 30000 nM.
As for `Cn1c(=O)n(Cc2ccccc2)c(=O)c2cc(C(=O)OCc3cc4ccccc4s3)sc21` [Example 304, 3-Benzyl-1-methyl-2,4-dioxo-1,2,3,4-tetrahydro-thieno[2,3-d]pyrimidine-6-carboxylic acid benzo[b]thiophen-2-ylmethyl ester], the half-maximal inhibitory concentration (IC50) was 3100 nM.
As for `Cn1ccc2cc(COC(=O)c3cc4c(=O)n(Cc5ccccc5)c(=O)n(C)c4s3)ccc21` [Example 305, 3-Benzyl-1-methyl-2,4-dioxo-1,2,3,4-tetrahydro-thieno[2,3-d]pyrimidine-6-carboxylic acid 1-methyl-1H-indol-5-ylmethyl ester], the IC50 turned out to be 46700 nM.
`Cn1c(=O)n(Cc2ccc3c(c2)OCO3)c(=O)c2cc(C(=O)OCc3ccccc3)sc21` [Example 307, 3-1,3-Benzodioxol-5-ylmethyl-1-methyl-2,4-dioxo-1,2,3,4-tetrahydro-thieno[2,3-d]pyrimidine-6-carboxylic acid benzyl ester]: the IC50 came to 5.2 nM.
As to `Cn1c(=O)n(Cc2ccncc2)c(=O)c2cc(C(=O)OCc3ccccc3)sc21` [Example 308, 1-Methyl-2,4-dioxo-3-pyridin-4-ylmethyl-1,2,3,4-tetrahydro-thieno[2,3-d]pyrimidine-6-carboxylic acid benzyl ester], the IC50 came out at 7.15 nM.
`Cn1c(=O)n(Cc2ccc(C(C)(C)C)cc2)c(=O)c2cc(C(=O)OCc3ccccc3)sc21` [Example 309, 3-(4-tert-Butyl-benzyl)-1-methyl-2,4-dioxo-1,2,3,4-tetrahydro-thieno[2,3-d]pyrimidine-6-carboxylic acid benzyl ester]: the IC50 was 56 nM.
With `Cc1c(C(=O)OCc2ccccc2)sc2[nH]c(=O)n(Cc3ccc(Cl)c(Cl)c3)c(=O)c12` [Example 310, 3-(3,4-Dichloro-benzyl)-5-methyl-2,4-dioxo-1,2,3,4-tetrahydro-thieno[2,3-d]pyrimidine-6-carboxylic acid benzyl ester], the half-inhibitory concentration (IC50) came out at 30000 nM.
For the compound `Cn1c(=O)n(Cc2ccc(OC(F)(F)F)cc2)c(=O)c2cc(C(=O)OCc3ccccc3)sc21` [Example 311, 1-Methyl-2,4-dioxo-3-(4-trifluoromethoxy-benzyl)-1,2,3,4-tetrahydro-thieno[2,3-d]pyrimidine-6-carboxylic acid benzyl ester], the IC50 is 84.5 nM.
For `Cn1c(=O)n(Cc2ccc3ccccc3c2)c(=O)c2cc(C(=O)OCc3ccccc3)sc21` [Example 312, 1-Methyl-3-naphthalen-2-ylmethyl-2,4-dioxo-1,2,3,4-tetrahydro-thieno[2,3-d]pyrimidine-6-carboxylic acid benzyl ester], the half-inhibitory concentration (IC50) came out at 27.5 nM.
Next, `Cn1c(=O)n(Cc2ccc(C#N)cc2)c(=O)c2cc(C(=O)OCc3ccccc3)sc21` [Example 313, 3-(4-Cyano-benzyl)-1-methyl-2,4-dioxo-1,2,3,4-tetrahydro-thieno[2,3-d]pyrimidine-6-carboxylic acid benzyl ester]: 6.45 nM.
In the case of `Cn1c(=O)n(Cc2ccccc2)c(=O)c2cc(C(=O)OCc3ccc4occc4c3)sc21` [Example 314, 3-Benzyl-1-methyl-2,4-dioxo-1,2,3,4-tetrahydro-thieno[2,3-d]pyrimidine-6-carboxylic acid benzofuran-5-ylmethyl ester], the 50% inhibitory concentration (IC50) turned out to be 18.5 nM.
Consider `COc1cc(Cn2c(=O)c3cc(C(=O)OCc4ccccc4)sc3n(C)c2=O)cc(OC)c1` [Example 315, 3-(3,5-Dimethoxy-benzyl)-1-methyl-2,4-dioxo-1,2,3,4-tetrahydro-thieno[2,3-d]pyrimidine-6-carboxylic acid benzyl ester], for which the IC50 is 20.5 nM.
As to `COc1ccc(CCNC(=O)c2cc3c(=O)n(Cc4ccccc4)c(=O)n(C)c3s2)cc1OC` [Example 320, 3-Benzyl-1-methyl-2,4-dioxo-1,2,3,4-tetrahydro-thieno[2,3-d]pyrimidine-6-carboxylic acid[2-(3,4-dimethoxy-phenyl)-ethyl]-amide], the IC50 is greater than 100000 nM.
Turning to `Cn1c(=O)n(Cc2ccccc2)c(=O)c2cc(C(=O)NCc3ccc(N)cc3)sc21` [Example 321, 3-Benzyl-1-methyl-2,4-dioxo-1,2,3,4-tetrahydro-thieno[2,3-d]pyrimidine-6-carboxylic acid 4-amino-benzylamide], the 50% inhibitory concentration (IC50) was greater than 100000 nM.
For `Cn1c(=O)n(Cc2ccccc2)c(=O)c2cc(C(=O)NCCc3ccc(Cl)cc3)sc21` [Example 322, 3-Benzyl-1-methyl-2,4-dioxo-1,2,3,4-tetrahydro-thieno[2,3-d]pyrimidine-6-carboxylic acid[2-(4-chloro-phenyl)-ethyl]-amide] the value was greater than 100000 nM.
For `Cn1c(=O)n(Cc2ccccc2)c(=O)c2cc(C(=O)NCc3ccccc3-c3ccccc3)sc21` [Example 323, 3-Benzyl-1-methyl-2,4-dioxo-1,2,3,4-tetrahydro-thieno[2,3-d]pyrimidine-6-carboxylic acid (biphenyl-2-ylmethyl)-amide] the value was greater than 100000 nM; for `COc1ccc(CNC(=O)c2cc3c(=O)n(Cc4ccccc4)c(=O)n(C)c3s2)cc1OC` [Example 324, 3-Benzyl-1-methyl-2,4-dioxo-1,2,3,4-tetrahydro-thieno[2,3-d]pyrimidine-6-carboxylic acid 3,4-dimethoxy-benzylamide], greater than 100000 nM; for `Cn1c(=O)n(Cc2ccccc2)c(=O)c2cc(C(=O)NCCc3ccncc3)sc21` [Example 325, 3-Benzyl-1-methyl-2,4-dioxo-1,2,3,4-tetrahydro-thieno[2,3-d]pyrimidine-6-carboxylic acid (2-pyridin-4-yl-ethyl)-amide], greater than 100000 nM.
Next, `CCOc1cccc(CCNC(=O)c2cc3c(=O)n(Cc4ccccc4)c(=O)n(C)c3s2)c1` [Example 327, 3-Benzyl-1-methyl-2,4-dioxo-1,2,3,4-tetrahydro-thieno[2,3-d]pyrimidine-6-carboxylic acid[2-(3-ethoxy-phenyl)-ethyl]-amide]: 2800 nM; `Cn1c(=O)n(Cc2ccccc2)c(=O)c2cc(C(=O)NCc3ccc(F)c(Cl)c3)sc21` [Example 328, 3-Benzyl-1-methyl-2,4-dioxo-1,2,3,4-tetrahydro-thieno[2,3-d]pyrimidine-6-carboxylic acid 3-chloro-4-fluoro-benzylamide]: 2700 nM; `Cn1c(=O)n(Cc2ccccc2)c(=O)c2cc(C(=O)NCc3ccc(Cl)cc3Cl)sc21` [Example 329, 3-Benzyl-1-methyl-2,4-dioxo-1,2,3,4-tetrahydro-thieno[2,3-d]pyrimidine-6-carboxylic acid 2,4-dichloro-benzylamide]: 30000 nM.
For the compound `CC(CNC(=O)c1cc2c(=O)n(Cc3ccccc3)c(=O)n(C)c2s1)c1ccccc1` (centres unmarked) [Example 330, 3-Benzyl-1-methyl-2,4-dioxo-1,2,3,4-tetrahydro-thieno[2,3-d]pyrimidine-6-carboxylic acid (2-phenyl-propyl)-amide], the IC50 is greater than 100000 nM.
For `COc1cc(CNC(=O)c2cc3c(=O)n(Cc4ccccc4)c(=O)n(C)c3s2)cc(OC)c1OC` [Example 331, 3-Benzyl-1-methyl-2,4-dioxo-1,2,3,4-tetrahydro-thieno[2,3-d]pyrimidine-6-carboxylic acid 3,4,5-trimethoxy-benzylamide] the value was greater than 100000 nM.
Turning to `Cn1c(=O)n(Cc2ccccc2)c(=O)c2cc(C(=O)NCc3cccc(Cl)c3)sc21` [Example 332, 3-Benzyl-1-methyl-2,4-dioxo-1,2,3,4-tetrahydro-thieno[2,3-d]pyrimidine-6-carboxylic acid 3-chloro-benzylamide], the IC50 was 1000 nM.
As for `COc1cc(CNC(=O)c2cc3c(=O)n(Cc4ccccc4)c(=O)n(C)c3s2)cc(OC)c1` [Example 333, 3-Benzyl-1-methyl-2,4-dioxo-1,2,3,4-tetrahydro-thieno[2,3-d]pyrimidine-6-carboxylic acid 3,5-dimethoxy-benzylamide], the IC50 was greater than 100000 nM.
